Results taken from BindingDB's records for doi:10.1002/cbic.200390029 (University of Queensland Brisbane, 2003).

Molecular target: T1, Phospholipase A2, membrane associated (Homo sapiens, UniProt P14555)
T1 sequence (P14555 whole entry): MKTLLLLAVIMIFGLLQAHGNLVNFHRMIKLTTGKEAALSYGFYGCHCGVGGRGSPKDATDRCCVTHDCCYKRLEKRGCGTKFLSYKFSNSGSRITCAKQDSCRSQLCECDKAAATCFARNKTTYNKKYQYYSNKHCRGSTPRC
Assay: In Vitro Colorimetric Enzyme Assay

SMILES	IC50 [nM]
O=C(O)CC[C@@H](Cc1ccc(Oc2ccccn2)cc1)NC(=O)CCCCCCc1ccccc1 [hnpsPLA2-IIa Inhibitor, 2h]	214
O=C(O)CC[C@@H](Cc1ccc(OCc2ccc3ccccc3c2)cc1)NC(=O)CCCCCCc1ccccc1 [hnpsPLA2-IIa Inhibitor, 2m]	39
O=C(O)CC[C@@H](Cc1ccc(Oc2cccnc2)cc1)NC(=O)CCCCCCc1ccccc1 [hnpsPLA2-IIa Inhibitor, 2i]	247
COc1ccccc1CCCCCCC(=O)N[C@@H](CCC(=O)O)Cc1ccc(OCc2ccccc2)cc1 [hnpsPLA2-IIa Inhibitor, 2d]	1820
O=C(O)CC[C@@H](Cc1ccc(OCc2ccccc2)cc1)NC(=O)CCCCCCc1cccnc1 [hnpsPLA2-IIa Inhibitor, 2f]	761
O=C(O)CC[C@@H](Cc1ccc(OCc2ccccc2)cc1)NC(=O)CCCCCc1ccccc1 [hnpsPLA2-IIa Inhibitor, 2a]	662
O=C(O)CC[C@@H](Cc1ccc(O)cc1)NC(=O)CCCCCCc1ccccc1 [hnpsPLA2-IIa Inhibitor, 2q]	2570
O=C(O)CC[C@@H](Cc1ccc(OC/C=C/c2ccccc2)cc1)NC(=O)CCCCCCc1ccccc1 [hnpsPLA2-IIa Inhibitor, 2n]	116
O=C(O)CC[C@@H](Cc1ccc(OCc2ccccc2)cc1)NC(=O)CCCCCCCc1ccccc1 [hnpsPLA2-IIa Inhibitor, 2c]	2480
CC(C)COc1ccc(C[C@H](CCC(=O)O)NC(=O)CCCCCCc2ccccc2)cc1 [hnpsPLA2-IIa Inhibitor, 2o]	170
CC(=O)Nc1ccccc1CCCCCCC(=O)N[C@@H](CCC(=O)O)Cc1ccc(OCc2ccccc2)cc1 [hnpsPLA2-IIa Inhibitor, 2e]	4050
CCCCCCCOc1ccc(C[C@H](CCC(=O)O)NC(=O)CCCCCCc2ccccc2)cc1 [hnpsPLA2-IIa Inhibitor, 2p]	86
O=C(O)CC[C@@H](Cc1ccc(OCc2ccccc2)cc1)NC(=O)CCCCCCc1cccc([N+](=O)[O-])c1 [hnpsPLA2-IIa Inhibitor, 2g]	536
O=C(O)CC[C@@H](Cc1ccc(OCC2CCCCC2)cc1)NC(=O)CCCCCCc1ccccc1 [hnpsPLA2-IIa Inhibitor, 2j]	67
O=C(O)CC[C@@H](Cc1ccc(OCc2cccc3ccccc23)cc1)NC(=O)CCCCCCc1ccccc1 [hnpsPLA2-IIa Inhibitor, 2l]	19
O=C(O)CC[C@@H](Cc1ccc(OCC2CCCC2)cc1)NC(=O)CCCCCCc1ccccc1 [hnpsPLA2-IIa Inhibitor, 2k]	57
